Laboratory results: patent US8426340B2, “Plant growth enhancement with combinations of PESA and plant growth regulators” (Valent BioSciences Corporation, priority 2009, dated 2013)
Counter-ions that a name gives are not always drawn.

Experiments:
Type in all cases: in vivo
lettuce [1] = assay: Lettuce seed treatment, root growth; conditions: 25° C. in darkness, 3 days
Description: (§1) Seed was sieved with a screen of mesh size appropriate to remove broken seeds and small trash. Cracked or otherwise damaged seeds were removed. The seed was well mixed, and 50 g samples were weighed into small plastic trays. Seed treatment slurries were made by adding measured amounts of PESA or its salts and other AIs to sufficient water to bring them up to a standard volume, typically 2 ml. A fungicide (Maxim XL; Syngenta Agricultural Products, Greensboro, N.C.), a polymeric binder (CF-Clear; Becker-Underwood, Ames, Iowa), and a colorant (Color Coat Red; Becker-Underwood, Ames, Iowa) were also included in the slurry at label rates. A small aliquot of this slurry was applied to the seed using a Hege 11 coater (Wintersteiger, Salt Lake City, Utah) with a six-inch bowl at a slurry rate of 30 ounces per 100 lbs of seed. The slurry was deposited drop-wise on the spinning disk atomizer using a syringe.
(§2) After treatment, each seed sample was placed in plastic trays and dried at a room temperature for 20 to 60 minutes. The samples were then placed in small plastic bags. […]
To test the effect of chemical application on root growth, lettuce seed was treated with PESA salt (50 g/cwt), 6BA (1 g/cwt), or a combination of PESA salt and 6BA. Treated lettuce seed was grown at 25° C. in darkness, and root lengths were determined after 3 days.

cotton [2] = assay: Pouch assay, root length of cotton seedlings (6BA); conditions: for root length (cm) of cotton: 6BA 0 mg/liter
Description: (§3) Seeds were placed in germination pouches consisting of germination paper hydrated with sterile water that was an insert in a gas-permeable 16×14 cm plastic pouch (CYG Pouch; Mega International, St. Paul, Minn.). In these examples, in pouch solution evaluation, PESA sodium salt or other active ingredients were added to the sterile water in the pouch. The pouches were arranged in a completely randomized block design in growth racks and placed in 19-liter polycarbonate food storage containers (Rubbermaid Commercial Products, Winchester, Va.). The sealed containers were held in an upright growth cabinet maintained at 25° C. with a 12 hour light: 12 hour dark photoperiod. When Abscisic acid was assayed in pouch studies, the pouches were first filled with sterile water to promote germination. The sterile water solutions were replaced after germination (4 days) and replaced with solutions containing ABA. After 6 days, the containers were removed from the growth cabinet, and the lengths of the roots and shoot were measured.

cotton [3] = assay: Pouch assay, root length of cotton seedlings (ABA)
Description: as §3

rice cv. Cheniere = assay: Pouch assay, root length of rice seedlings; conditions: for effect on root length of rice seedlings / effect on main root length of rice cv. Cheniere: pouch solution; for effect on main root length of rice cv. Cheniere: combination: 3, 10, or 30 mg/liter PESA with 1 or 10 mg/liter trinexapac-ethyl
Description: as §3
In pouch solution evaluation, treatment with the gibberellin biosynthesis inhibitor trinexapac-ethyl on […].

lettuce [4] = assay: Lettuce seed treatment, germination under thermodormancy conditions; conditions: 33° C. and continuous light
Description: as §1, §2
To test the effect of chemical application on thermodormancy, lettuce seed was treated with PESA salt (50 g/cwt), 6BA (1 g/cwt), or a combination of PESA salt and 6BA. Lettuce seed was then grown under conditions that promote thermodormancy (33° C. and continuous light) and final seedling germination was determined (Table 1).

[5] = PESA salt 50 g/cwt, 6BA 1 g/cwt, alone or in combination
[6] = seed treatment 50 g/cwt PESA salt, 0 g/cwt 6BA
[7] = ACC alone 1, 10, or 100 mg/liter, combination: 3, 10, or 30 mg/liter PESA with 1, 10, or 100 mg/liter ACC, except 10 mg/liter PESA with 1 mg/liter ACC

For `O=C(O)CCC(=O)NCCc1ccccc1` [PESA salt, N-(2-phenylethyl)succinamic acid], the “effect on lettuce root growth” value (lettuce [1]; [5]) was “no effect on lettuce root growth”, the “Root length (cm)” value (lettuce [1]; [6]) was 3.8 cm and the “root length (cm) of cotton” value (cotton [2]; PESA salt 3 mg/liter) was 9.8 cm. For the same compound, the “root length (cm) of cotton” value (cotton [2]; PESA salt 10 mg/liter) was 11.9 cm, the “root length (cm) of cotton” value (cotton [2]; PESA salt 30 mg/liter) was 13.0 cm and the “effect on main root length of cotton seedlings” value (cotton [2]; pouch solution, combination: 10 or 30 mg/liter PESA with 1 or 10 mg/liter 6BA) was “increased root length in a dose-dependent manner”. For the same compound, the “root length (cm) of cotton” value (cotton [3]; PESA salt 3 mg/liter, ABA 0 mg/liter) was 11.9 cm, the “root length (cm) of cotton” value (cotton [3]; PESA salt 10 mg/liter, ABA 0 mg/liter) was 11.1 cm and the “root length (cm) of rice cv. Cheniere” value (rice cv. Cheniere; Table 3, PESA salt 3 mg/liter, trinexapac-ethyl 0 mg/liter) was 12.1 cm. For the same compound, the “root length (cm) of rice cv. Cheniere” value (rice cv. Cheniere; Table 3, PESA salt 10 mg/liter, trinexapac-ethyl 0 mg/liter) was 12.5 cm, the “root length (cm) of rice cv. Cheniere” value (rice cv. Cheniere; Table 3, PESA salt 30 mg/liter, trinexapac-ethyl 0 mg/liter) was 13.1 cm and the “root length (cm) of rice cv. Cheniere” value (rice cv. Cheniere; Table 4, PESA salt 3 mg/liter, ACC 0 mg/liter) was 9.7 cm. For the same compound, the “root length (cm) of rice cv. Cheniere” value (rice cv. Cheniere; Table 4, PESA salt 10 mg/liter, ACC 0 mg/liter) was 9.8 cm, the “root length (cm) of rice cv. Cheniere” value (rice cv. Cheniere; Table 4, PESA salt 30 mg/liter, ACC 0 mg/liter) was 9.4 cm and the “root length (cm) of rice cv. Cheniere” value (rice cv. Cheniere; Table 5, PESA salt 3 mg/liter, AVG 0 mg/liter) was 11.4 cm. For the same compound, the “root length (cm) of rice cv. Cheniere” value (rice cv. Cheniere; Table 5, PESA salt 30 mg/liter, AVG 0 mg/liter) was 12.3 cm, the “effect on root length of rice seedlings” value (rice cv. Cheniere; [7]) was “increased root length” and the “effect on root length of rice seedlings” value (rice cv. Cheniere; PESA salt alone (AVG experiment)) was “increased root length”. For the same compound, the “effect on main root length of rice cv. Cheniere” value (rice cv. Cheniere) was “increased root length in a dose-dependent manner”, the “effect on lettuce germination” value (lettuce [4]; [5]) was “no effect” and the “Germination (%)” value (lettuce [4]; [6]) was 14.9%.

With `CC1=CC(=O)CC(C)(C)[C@@]1(O)/C=C/C(C)=C\C(=O)O` [ABA, abscisic acid] the “root length (cm) of cotton” value (cotton [3]; PESA salt 0 mg/liter, ABA 1 mg/liter) was 10.4 cm, the “root length (cm) of cotton” value (cotton [3]; PESA salt 0 mg/liter, ABA 10 mg/liter) was 10.0 cm and the “effect on root growth of cotton seedlings” value (cotton [3]; pouch solution, combination: PESA 3 or 10 mg/liter with ABA) was “inhibited root growth”.

In the case of `NC1(C(=O)O)CC1` [ACC, 1-aminocyclopropane carboxylic acid, reference compound], the “root length (cm) of rice cv. Cheniere” value (rice cv. Cheniere; Table 4, PESA salt 0 mg/liter, ACC 1 mg/liter) was 8.8 cm, the “root length (cm) of rice cv. Cheniere” value (rice cv. Cheniere; Table 4, PESA salt 0 mg/liter, ACC 10 mg/liter) was 7.8 cm and the “root length (cm) of rice cv. Cheniere” value (rice cv. Cheniere; Table 4, PESA salt 0 mg/liter, ACC 100 mg/liter) was 4.3 cm. The “effect on root length of rice seedlings” value (rice cv. Cheniere; [7]) was “reduced root length”.

With `CCOC(=O)C1CC(=O)C(=C(O)C2CC2)C(=O)C1` (centres unmarked) [trinexapac-ethyl, reference compound] the “root length (cm) of rice cv. Cheniere” value (rice cv. Cheniere; Table 3, PESA salt 0 mg/liter, trinexapac-ethyl 1 mg/liter) was 10.9 cm, the “root length (cm) of rice cv. Cheniere” value (rice cv. Cheniere; Table 3, PESA salt 0 mg/liter, trinexapac-ethyl 10 mg/liter) was 9.9 cm and the “root length (cm) of rice cv. Cheniere” value (rice cv. Cheniere; Table 3, PESA salt 0 mg/liter, trinexapac-ethyl 100 mg/liter) was 5.0 cm. The “effect on main root length of rice cv. Cheniere” value (rice cv. Cheniere) was “negative effect on main root length”.
